Structures can show the parent of a compound that is named as a salt. Where two headings read alike, the source gives them in different places.
Test system: SARS-CoV-2(delta variant)
Assay: microbe, parasite or virus in culture
Assay type: cell-based
[1] = Severe acute respiratory syndrome coronavirus 2, Vero C1008, read-out: IC50
[2] = Severe acute respiratory syndrome coronavirus 2, Vero C1008, read-out: IC90
[3] = Severe acute respiratory syndrome coronavirus 2, Vero C1008

SMILES | IC50 [1] [µM] | IC90 [2] [µM] | other results
Cc1ccc(Nc2nc(N3CCOCC3)nc(N3CCOCC3)n2)cc1C [VIRADEM-10884, (3,4-dimethylphenyl)-(4,6-dimorpholin-4-yl-[1,3,5]triazin-2-yl)-amine] | 0.389 | 0.477 | –
Cc1ccc(Nc2nc(Nc3ccc(C)c(C)c3)nc(N3CCOCC3)n2)cc1 [VIRADEM-11141] | 0.125 | 0.15 | –
CCOC(=O)c1ccc(Nc2nc(Nc3ccc(F)cc3)nc(N3CCOCC3)n2)cc1 [VIRADEM-11660, 4-[4-(4-Fluorophenylamino)-6-morpholin-4-yl-[1,3,5]triazin-2-ylamino]benzoic acid ethyl ester] | 1.86 | > 3 | –
Cc1cccc(N2C(N3CCOCC3)=NC(N)=NC2Nc2ccc(Cl)cc2)c1 (stereo not shown) [VIRADEM-11680, N-(4-Chlorophenyl)-6-morpholin-4-yl-N^1-m-tolyl-[1,3,5]triazine-2,4-diamine hydrochloride] | 0.428 | 0.521 | –
Cc1cccc(N2C(N3CCOCC3)=NC(N)=NC2Nc2cccc(Cl)c2)c1 (stereo not shown) [VIRADEM-11781, N-(3-Chlorophenyl)-6-morpholin-4-yl-N^1-m-tolyl-[1,3,5]triazine-2,4-diamine hydrochloride] | 1.28 | 1.37 | –
Cc1ccc(N2C(N3CCOCC3)=NC(N)=NC2Nc2cccc(F)c2)cc1 (stereo not shown) [VIRADEM-11785, N-(3-Fluorophenyl)-6-morpholin-4-yl-N^1-p-tolyl-[1,3,5]triazine-2,4-diamine hydrochloride] | 0.559 | 0.69 | –
Cc1cccc(N2C(N3CCOCC3)=NC(N)=NC2Nc2cccc(F)c2)c1 (stereo not shown) [VIRADEM-11786, N-(3-Fluorophenyl)-6-morpholin-4-yl-N^1-m-tolyl-[1,3,5]triazine-2,4-diamine hydrochloride] | 0.371 | 0.396 | –
Cc1cccc(N2C(N3CCOCC3)=NC(N)=NC2Nc2ccc(F)cc2)c1 (stereo not shown) [VIRADEM-11787, N-(4-Fluorophenyl)-6-morpholin-4-yl-N^1-m-tolyl-[1,3,5]triazine-2,4-diamine hydrochloride] | 0.404 | 0.446 | –
CCOc1ccc(NC2N=C(N)N=C(N3CCOCC3)N2c2cccc(C)c2)cc1 (stereo not shown) [VIRADEM-11794, N-(4-Ethoxyphenyl)-6-morpholin-4-yl-N^1-m-tolyl-[1,3,5]triazine-2,4-diamine hydrochloride] | 0.545 | 0.855 | –
CC(=O)Nc1ccc(Nc2nc(Nc3ccc(Cl)cc3)nc(N3CCOCC3)n2)cc1 [VIRADEM-11847, N-{4-[4-(4-Chlorophenylamino)-6-morpholin-4-yl-[1,3,5]triazin-2-ylamino]-phenyl}-acetamide] | 0.036 | 0.046 | –
CC(=O)c1cccc(Nc2nc(Nc3ccc(Cl)cc3)nc(N3CCOCC3)n2)c1 [VIRADEM-11882, 1-{3-[4-(4-chlorophenylamino)-6-morpholin-4-yl-[1,3,5]triazin-2-ylamino]-phenyl}-ethanone] | 0.47 | 0.635 | –
CCOC(=O)c1ccc(Nc2nc(Nc3ccc(C)c(C)c3)nc(N3CCOCC3)n2)cc1 [VIRADEM-11913, 4-[4-(3,4-Dimethylphenylamino)-6-morpholin-4-yl-[1,3,5]-2-ylamino]-benzoic acid ethyl ester] | – | – | IC50 (read-out: IC50): 0.245 µM; IC90 (read-out: IC90): 0.331 µM
Cc1ccc(Nc2nc(Nc3cccc(C(F)(F)F)c3)nc(N3CCOCC3)n2)cc1C [VIRADEM-11914, N-(3,4-Dimethylphenyl)-6-morpholin-4-yl-N^1-(3-trifluoromethylphenyl)-[1,3,5]triazine-2,4-diamine] | 0.382 | 0.437 | –
CCOC(=O)c1ccc(Nc2nc(Nc3ccc(C)cc3)nc(N3CCOCC3)n2)cc1 [VIRADEM-11916, 4-(4-Morpholin-4-yl-6-p-tolylamino[1,3,5]-2-ylamino)-benzoic acid ethyl ester] | – | – | IC50 (read-out: IC50): 0.559 µM; IC90 (read-out: IC90): 0.707 µM
CC(=O)Nc1ccc(Nc2nc(Nc3ccc(C)c(C)c3)nc(N3CCOCC3)n2)cc1 [VIRADEM-11918, N-{4-[4-(3,4-Dimethylphenylamino)-6-morpholin-4-yl-[1,3,5]triazin-2-ylamino]phenyl}-acetamide] | 0.041 | 0.06 | –
CCOC(=O)c1ccc(Nc2nc(Nc3cc(C)cc(C)c3)nc(N3CCOCC3)n2)cc1 [VIRADEM-11934, 4-[4-(3,5-Dimethylphenylamino)-6-morpholin-4-yl-[1,3,5]-2-ylamino]-benzoic acid ethyl ester] | – | – | IC50 (read-out: IC50): 1.02 µM; IC90 (read-out: IC90): 1.24 µM
CC(=O)c1cccc(Nc2nc(Nc3ccccc3)nc(N3CCOCC3)n2)c1 [VIRADEM-12125, 1-[3-(4-Morpholin-4-yl-6-phenylamino-[1,3,5]triazin-2-ylamino)-phenyl]-ethanone hydrochloride] | 0.584 | 1.37 | –
Cc1cccc(Nc2nc(Nc3ccc(C(C)C)cc3)nc(N3CCOCC3)n2)c1 [VIRADEM-12251, N-(4-Isoproylphenyl)-6-morpholin-4-yl-N^1-m-tolyl-[1,3,5]triazine-2,4-diamine hydrochloride] | – | – | IC50 (read-out: IC50): 0.951 µM; IC90 (read-out: IC90): 1.17 µM
COc1cccc(NC2N=C(N)N=C(N3CCOCC3)N2c2ccccc2)c1 (stereo not shown) [VIRADEM-12252, N-(3-Methoxyphenyl)-6-morpholin-4-yl-N^1-phenyl-[1,3,5]triazine-2,4-diamine hydrochloride] | 0.357 | 0.425 | –
COC(=O)c1ccc(Nc2nc(Nc3cccc(OC)c3)nc(N3CCOCC3)n2)cc1 [VIRADEM-12329, 4-[4-(3-Methoxyphenylamino)-6-morpholin-4-yl-[1,3,5]triazin-2-ylamino]-benzoic acid methyl ester] | 0.368 | 0.465 | –
Cc1ccc(Nc2nc(N3CCCCCC3)nc(N3CCOCC3)n2)cc1 [VIRADEM-15229, (4-Azepan-1-yl-6-morpholin-4-yl-[1,3,5]triazin-2-yl)-p-tolyl-amine] | 1.03 | 1.19 | –
Cc1ccc(Nc2nc(N3CCOCC3)nc(N3CCCc4ccccc43)n2)cc1C [VIRADEM-15278, [4-(3,4-Dihydro-2-H-quinolin-1-yl)-6-morpholin-4-yl-[1,3,5]triazin-2-yl]-(3,4-dimethylphenyl)-amine] | – | – | IC50 (read-out: IC50): 0.194 µM; IC90 (read-out: IC90): 0.388 µM
COc1ccc(Nc2nc(Nc3cccc(C)c3)nc(N3CCOCC3)n2)cc1 [hydrochloride] | – | – | IC50 [3]: 0.338 µM; IC90 [3]: 0.356 µM

From patent US20260076973A1 (priority 2023, published 2026)
